The numbers were not newly measured in patent US9173848B2, “Solid pharmaceutical fixed dose compositions comprising irbesartan and amlodipine, their preparation and their therapeutic application” (SANOFI, priority 2009, dated 2015), which cites them from elsewhere.

The conditions of data set [1]: in vivo.

In the case of `CCOC(=O)C1=C(COCCN)NC(C)=C(C(=O)OC)C1c1ccccc1Cl` (stereo not shown) [Amlodipine besylate], the solubility in water entry is “slightly soluble”. For the same molecule, the absolute bioavailability in data set [1] is given as 64-90%.
For `CCCCC1=NC2(CCCC2)C(=O)N1Cc1ccc(-c2ccccc2-c2nnn[nH]2)cc1` [Irbesartan, 2-n-butyl-4-spirocyclopentane-1-[(2′-(tetrazol-5-yl)biphenyl-4-yl)methyl]-2-imidazolin-5-one], the solubility in water result was “insoluble”. Moreover, the “media of maximum solubility” value (parabolic pH solubility profile) is 0.1 N HCl and pH 7.5 phosphate buffer.
